Non-standard residues stand in square brackets, D forms with d. Residues, ends and D or L forms follow the SMILES beside them. *: point of attachment. X2 = COc1ccc(CN(CC(=O)N(CCCOC(C)C)CC(=O)*)C(=O)CCC(=O)c2cccs2)cc1; N(4-MeOBn)Gly = COc1ccc(CNCC(=O)O)cc1; N((CH2)3OiPr)Gly = CC(C)OCCCNCC(=O)O; Stearoyl = CCCCCCCCCCCCCCCCCC(=O)*; Palmitoyl = CCCCCCCCCCCCCCCC(=O)*; Myristoyl = CCCCCCCCCCCCCC(=O)*; Gly(N-cHex) = O=C(O)CNC1CCCCC1; X1 = O=C(CCC(=O)*)c1cccs1; Nlys = NCCCCNCC(=O)O; Nme = COCCNCC(=O)O
Key:
H441 cells [1] = assay: MTS cell viability assay; format: cell-based; conditions: H441 (KRASG12V); vs PKR1
Description: Three cancer cell lines (H441, H358, and H1993) harboring KRAS G12V, KRAS G12C, and WT KRAS, respectively, were subjected to treatment with the fatty acid conjugated-PKR1. […] FIGS. 6A-6C are graphical representations of the effects of the fatty acid conjugated PKR1 derivatives on cell survival and proliferation of (A) H441, (B) H358, and (C) H1993 cell lines. FIG. 6D presents the IC50 values of fatty acid conjugated PKR1 derivatives in H441, H1993, and H358 cell lines. […] As KRAS is predominant in the membrane consisting of unsaturated fatty acids, conjugating unsaturated fatty acids to PKR1 can facilitate its anchoring onto the membrane, thereby improving efficacy.
To examine the capacity of PKR1 derivatives as broad-spectrum KRAS inhibitors, MTS assays were conducted in various types of cell lines representing different cancer types, KRAS mutations, and KRAS gene zygosity (Table 1). IC50 values for each cell line were obtained from the MTS assay with PKR1-C16 treatment.

H441 cells [2] = assay: Cell viability, single and combination treatment with MEK/ERK inhibitors; format: cell-based; conditions: Homo sapiens, NCI-H441; single treatment, 3 D incubation; heterozygous KRAS G12V
Description: Provided herein are pan-KRAS inhibitors that can enhance the sensitivity of heterozygous KRAS mutant cells to KRAS downstream inhibitors, thereby overcoming limitations in their use for cancer therapy. FIG. 11A is an illustration presenting that heterozygous KRAS mutant cells are resistant to the inhibition of KRAS downstream signaling while homozygous KRAS mutant cells are sensitive to such inhibition, therefore blocking wild type KRAS potentially re-sensitizes the heterozygous KRAS mutant cells to the inhibition of KRAS downstream signaling. Cell viability of H441 cells harboring heterozygous KRAS G12V were assessed in combination treatment with PKR1-C16. FIG. 11B is a graphical representation presenting the cell viability of H441 harboring heterozygous KRAS G12V with co-treatments of Trametinib (upper panel) and Ulixertinib with PKR1-C16 (lower panel). […] Concentration gradients of Trametinib and Ulixertinib were co-treated with 1, 3, 5, and 7 μM of PKR1-C16, respectively. […] Blocking WT KRAS enables the re-sensitization of heterozygous KRAS mutant cells to the inhibitors of KRAS downstream signaling.

H2122 cells = conditions: homozygous KRAS G12C (H2122) vs heterozygous KRAS G12C (H23); cited from earlier work

IC50 (H441 cells [2]) [µM]	SMILES	increase in potency (H441 cells [1])	potency in H2122 compared with H23 cells (H2122 cells)
	CCCCCCCCCCCCCC(=O)NCCCC[C@H](NC(=O)[C@H](C)NC(=O)CN(CCOC)C(=O)CN(CCCCN)C(=O)CN(CCCCN)C(=O)CN(C(=O)CN(CCCOC(C)C)C(=O)[C@H](CCCCNC(=O)CN(CCCOC(C)C)C(=O)CN(Cc1ccc(OC)cc1)C(=O)CCC(=O)c1cccs1)NC(=O)CN(CCCOC(C)C)C(=O)CN(Cc1ccc(OC)cc1)C(=O)CCC(=O)c1cccs1)C1CCCCC1)C(N)=O [PKR1-C14] (X1-[N(4-MeOBn)Gly][N((CH2)3OiPr)Gly]K(X2)[N((CH2)3OiPr)Gly][Gly(N-cHex)][Nlys][Nlys][Nme]AK(Myristoyl)-NH2)	over 25 fold	
	CCCCCCCCCCCCCCCC(=O)NCCCC[C@H](NC(=O)[C@H](C)NC(=O)CN(CCOC)C(=O)CN(CCCCN)C(=O)CN(CCCCN)C(=O)CN(C(=O)CN(CCCOC(C)C)C(=O)[C@H](CCCCNC(=O)CN(CCCOC(C)C)C(=O)CN(Cc1ccc(OC)cc1)C(=O)CCC(=O)c1cccs1)NC(=O)CN(CCCOC(C)C)C(=O)CN(Cc1ccc(OC)cc1)C(=O)CCC(=O)c1cccs1)C1CCCCC1)C(N)=O [PKR1-C16] (X1-[N(4-MeOBn)Gly][N((CH2)3OiPr)Gly]K(X2)[N((CH2)3OiPr)Gly][Gly(N-cHex)][Nlys][Nlys][Nme]AK(Palmitoyl)-NH2)	over 25 fold	
	CCCCCCCCCCCCCCCCCC(=O)NCCCC[C@H](NC(=O)[C@H](C)NC(=O)CN(CCOC)C(=O)CN(CCCCN)C(=O)CN(CCCCN)C(=O)CN(C(=O)CN(CCCOC(C)C)C(=O)[C@H](CCCCNC(=O)CN(CCCOC(C)C)C(=O)CN(Cc1ccc(OC)cc1)C(=O)CCC(=O)c1cccs1)NC(=O)CN(CCCOC(C)C)C(=O)CN(Cc1ccc(OC)cc1)C(=O)CCC(=O)c1cccs1)C1CCCCC1)C(N)=O [PKR1-C18] (X1-[N(4-MeOBn)Gly][N((CH2)3OiPr)Gly]K(X2)[N((CH2)3OiPr)Gly][Gly(N-cHex)][Nlys][Nlys][Nme]AK(Stearoyl)-NH2)	over 25 fold	
10.4	CC(=O)Nc1cccc(-n2c(=O)n(C3CC3)c(=O)c3c(Nc4ccc(I)cc4F)n(C)c(=O)c(C)c32)c1 [Trametinib, trametinib]		higher potency in H2122 cells
17	CC(C)Nc1cc(-c2c[nH]c(C(=O)N[C@H](CO)c3cccc(Cl)c3)c2)c(Cl)cn1 [Ulixertinib, ulixertinib]		higher potency in H2122 cells

From patent US20260297128A1, “PEPTOID COMPOSITIONS TARGETING RAS PROTEINS AND METHODS OF TREATMENT OF CANCER USING THE SAME” (University of Houston System, priority 2023, published 2026)
